Measured values published in paper PMC6259751, “Investigating Spectrum of Biological Activity of 4- and 5-Chloro-2-hydroxy-N-[2-(arylamino)-1-alkyl-2-oxoethyl]benzamides” (Molecules, 2011).
In brackets after ≈: the same amount, converted by molar mass. Several values for one entry are separate records, joined by “and”; a condition that tells them apart may be missing. Equal values may be shown once. Read-outs that look alike come from different tables or passages of the source.

Tests used:
[1] = Lipophilicity determination by RP-HPLC (capacity factor k / log k); format: physicochemical; conditions: C18 column, MeOH 70% / H2O 30%, isocratic
Summary of the method: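 Isocratic RP-HPLC on end-capped C18 column, MeOH/H2O 70:30, 1.0 mL/min, 30 °C, UV 210 nm. Dead time from unretained KI; k = (tR − tD)/tD, log k taken as lipophilicity index on log P scale. Calculated log P/Clog P from two programs also reported.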

[2] = system: Mycobacterium tuberculosis MTB CNCTC My 331/88; assay: In vitro antimycobacterial evaluation; format: cell-based; conditions: IC90 value
[3] = system: Mycobacterium avium MA CNCTC My 330/88; assay: In vitro antimycobacterial evaluation; format: cell-based; conditions: IC90 value
[4] = system: Mycobacterium kansasii MK CNCTC My 235/80; assay: In vitro antimycobacterial evaluation; format: cell-based; conditions: IC90 value
Candida tropicalis 156 = assay: In vitro antifungal susceptibility testing (broth microdilution); format: cell-based; conditions: M27-A2 for yeasts, IC80 value
[5] = system: Trichophyton mentagrophytes 445; assay: as above; format: cell-based; conditions: M38-A for moulds, IC50 value, read-out: MIC TM
[6] = system: photosynthetic electron transport (PET) in spinach chloroplasts; assay: Inhibition of photosynthetic electron transport (PET) in spinach chloroplasts; format: biochemical, Spinacia oleracea L.; conditions: DCPIP photoreduction
Method: Chloroplasts were prepared from spinach (Spinacia oleracea L.) according to Masarovicova and Kralova. The inhibition of photosynthetic electron transport (PET) in spinach chloroplasts was determined spectrophotometrically (Genesys 6, Thermo Scientific, USA), using an artificial electron acceptor 2,6-dichlorophenol-indophenol (DCIPP) according to Kralova et al., and the rate of photosynthetic electron transport was monitored as a photoreduction of DCPIP. The measurements were carried out in phosphate buffer (0.02 mol/L, pH 7.2) containing sucrose (0.4 mol/L), MgCl2 (0.005 mol/L) and NaCl (0.015 mol/L). The chlorophyll content was 30 mg/L in these experiments and the samples were irradiated (~100 W/m^2) from 10 cm distance with a halogen lamp (250 W) using a 4 cm water filter to prevent warming of the samples. The studied compounds were dissolved in DMSO due to their limited water solubility. […] The inhibitory efficiency of the studied compounds was expressed by IC50 values, i.e. by molar concentration of the compounds causing 50% decrease in the oxygen evolution rate relative to the untreated control.

[7] = system: three Mycobacteria strains; assay: Antimycobacterial screening, summary statements (strain not specified); format: cell-based, Mycobacterium sp.; conditions: Mycobacterium, read-out: antitubercular / antimycobacterial activity (MIC)
Method: The discussed amides were tested against three Mycobacteria strains. […] Activities of some benzamides, especially against M. avium and M. kansasii, considerably exceeded the activity of isoniazid (INH) used as an internal standard. The discussed compounds can be divided according to the activities against individual Mycobacteria strains, and structure-activity relationships within Group 1, Group 2 and Group 4 can be discussed.
The in vitro antimycobacterial activity of all prepared compounds was evaluated against Mycobacterium tuberculosis MTB CNCTC My 331/88 (identical with H37RV and ATCC 27294, dilution of the strain was 10^−3 μmol/L), Mycobacterium avium MA CNCTC My 330/88 (identical with ATCC 25291, dilution of the strain was 10^−5 μmol/L) and Mycobacteriumkansasii MK CNCTC My 235/80 (identical with ATCC 12478, dilution of the strain was 10^−4 μmol/L) in the Laboratory for mycobacterial diagnostics and TB, Institute of Public Health in Ostrava, Czech Republic. All strains were obtained from the Czech National Collection of Type Cultures (CNCTC). Antimycobacterial activities were determined in the Sula semisynthetic medium (Sevac, Prague, Czech Republic). […] Reading was carried out on a stand with a bottom magnifying mirror, macroscopically, with the use of magnifying glass. The growth in plates was evaluated after 14 and 21 days of the incubation. […]

[8] = system: Staphylococcus aureus CCM 4516/08; assay: In vitro antibacterial susceptibility testing (broth microdilution); conditions: read-out: MIC SA
[9] = system: methicilin resistant Staphylococcus aureus H 5996/08; assay: as above; conditions: MRSA, read-out: MIC MRSA
[10] = system: Staphylococcus epidermidis H 6966/08; assay: as above; conditions: read-out: MIC SE
[11] = system: Enterococcus sp. J 14365/08; assay: as above; conditions: read-out: MIC EF
[12] = system: photosynthetic electron transport (PET) in spinach chloroplasts; design: method as in earlier work; conditions: standard ref 41; cited from earlier work

SMILES | log k [1] | MIC ([2]; 14h) | MIC ([2]; 21h) | MIC ([3]; 14h) | MIC ([3]; 21h) | MIC ([4]; 14h) | MIC ([4]; 21h) | MIC (Candida tropicalis 156; 24h) | MIC (Candida tropicalis 156; 48h) | MIC ([5]; 72h) | MIC ([5]; 120h) | IC50 [6] | MIC [7] | MIC ([8]; CCM4516, 24 h) | MIC ([8]; CCM4516, 48 h) | MIC ([9]; 24 h) | MIC ([9]; 48 h) | MIC ([10]; H6966/08, 24 h) | MIC ([10]; H6966/08, 48 h) | MIC ([11]; SP.J14365/08, 24 h) | other results
O=C(N[C@H](Cc1ccccc1)C(=O)Nc1ccc(Cl)cc1)c1cc(Cl)ccc1O [8l, N-{(1R)-1-benzyl-2-[(4-chlorophenyl)amino]-2-oxoethyl}-5-chloro-2-hydroxybenzamide] | 0.7329 | 16 µM (≈ 6.87 µg/mL) | 16 µM (≈ 6.87 µg/mL) | 32 µM (≈ 13.7 µg/mL) | 32 µM (≈ 13.7 µg/mL) | 32 µM (≈ 13.7 µg/mL) | 32 µM (≈ 13.7 µg/mL) | 125 µM (≈ 53.7 µg/mL) | > 125 µM | 125 µM (≈ 53.7 µg/mL) | 125 µM (≈ 53.7 µg/mL) | 33.7 µM | 32 µM (≈ 13.7 µg/mL) | > 125 µM | > 125 µM | > 125 µM | > 125 µM | > 125 µM | > 125 µM | > 125 µM | MIC ([11]; SP.J14365/08, 48 h): > 125 µM
CN(C)C(=O)Nc1ccc(Cl)c(Cl)c1 [DCMU, 3-(3,4-dichlorophenyl)-1,1-dimethylurea] |  |  |  |  |  |  |  |  |  |  |  |  |  |  |  |  |  |  |  |  | IC50 [12]: ~1900 nM and 1900 nM
O=C(N[C@H](Cc1ccccc1)C(=O)Nc1ccc(Cl)cc1)c1ccc(Cl)cc1O [9f, N-{(1R)-1-benzyl-2-[(4-chlorophenyl)amino]-2-oxoethyl}-4-chloro-2-hydroxybenzamide] | 0.7479 | 32 µM (≈ 13.7 µg/mL) | 32 µM (≈ 13.7 µg/mL) | 32 µM (≈ 13.7 µg/mL) | 32 µM (≈ 13.7 µg/mL) | 32 µM (≈ 13.7 µg/mL) | 32 µM (≈ 13.7 µg/mL) | > 125 µM | > 125 µM | > 125 µM | > 125 µM | 23.5 µM | 32 µM (≈ 13.7 µg/mL) | > 500 µM | > 500 µM | > 500 µM | > 500 µM | > 500 µM | > 500 µM | > 500 µM | MIC ([11]; SP.J14365/08, 48 h): > 500 µM
